Laboratory results taken from paper PMC11320734 (ACS Pharmacology & Translational Science, 2024).
Like-named read-outs stand apart in the source and are kept apart here.

Assays:
GSH adduct formation = type: in vitro ADME, rat
Procedure: Cytochrome P450 (CYP) assays were conducted as previously described.[41] In brief, RNB-61 was incubated at a range of concentrations with the following components: pooled human liver microsomes, CYP probe substrate around the reported Km, and NADPH with a final concentration: 1 mM in 100 mM sodium phosphate buffer (pH 7.4). The conditions were optimized for a linear metabolic rate for the probe substrate reactions. The analysis of the samples was carried out by LC-MS/MS. The assays generated two endpoints: IC50 (μM) and percent inhibition at the highest acceptable test concentration (typically 50 μM; lower if the highest concentration data are rejected due to insolubility). […] (GSH) adduct formation data was assessed as reported in a previous study.[42] Briefly, RNB-61 was incubated with human liver microsomes to form reactive metabolites, and glutathione was added as a nucleophile to convert the reactive metabolites into stable conjugates that could be analyzed by MS.

MAGL = MAGL (Homo sapiens, UniProt Q99685); test: Endocannabinoid target profiling: MAGL; type: biochemical
Chain of MAGL (Q99685 whole entry, species assumed): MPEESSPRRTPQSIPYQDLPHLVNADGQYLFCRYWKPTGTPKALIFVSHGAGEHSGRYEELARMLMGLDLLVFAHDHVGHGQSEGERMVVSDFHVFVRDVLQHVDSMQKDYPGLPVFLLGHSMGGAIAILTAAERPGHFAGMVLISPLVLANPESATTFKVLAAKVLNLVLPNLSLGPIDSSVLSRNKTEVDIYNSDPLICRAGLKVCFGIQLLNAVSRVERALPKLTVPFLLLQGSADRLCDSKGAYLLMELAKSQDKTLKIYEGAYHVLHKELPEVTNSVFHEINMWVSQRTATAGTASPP

canine CB2R = canine CB2R (Canis lupus familiaris, UniProt E2RKA3); test: cAMP assay in CHO cells; type: cell-based; details: mean ± SD; read-out: EC50 cAMP assay, dog CB2R
Chain of canine CB2R (E2RKA3 1-360): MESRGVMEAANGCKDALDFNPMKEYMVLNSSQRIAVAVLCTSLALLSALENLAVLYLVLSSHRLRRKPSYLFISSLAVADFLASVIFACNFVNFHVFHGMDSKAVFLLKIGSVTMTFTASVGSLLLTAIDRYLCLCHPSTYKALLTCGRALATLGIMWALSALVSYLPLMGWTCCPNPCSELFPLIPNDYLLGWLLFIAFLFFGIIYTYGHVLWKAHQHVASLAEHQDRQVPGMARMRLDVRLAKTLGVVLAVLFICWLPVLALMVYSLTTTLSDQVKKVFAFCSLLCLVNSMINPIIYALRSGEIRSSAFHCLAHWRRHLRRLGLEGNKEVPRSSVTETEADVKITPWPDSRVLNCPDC

[1] = Octanol/water distribution coefficient (logD), CAMDIS assay; type: physicochemical
Procedure: For the determination of the octanol/water distribution coefficient (logD), the carrier-mediated distribution system (CAMDIS)-assay was used as described elsewhere.[38] Kinetic and thermodynamic solubilities were assessed using the lyophilization solubility assay (LYSA) and thermodynamic solubility assay (THESA), respectively. For the LYSA, the solubility of RNB- 61 in phosphate buffer at pH 6.5 from an evaporated 10 mM DMSO compound stock solution was measured. Two aliquots of the test compounds were dried and dissolved in phosphate buffer at pH 6.5. The solutions were then filtered and diluted (3 different dilution levels for each compound) before high throughput mass spectrometry (MS) analysis was performed in an Agilent RapidFire system. Each test compound was quantified using a 6-point calibration curve prepared with the same DMSO starting solution. For THESA, RNB-61 (8.6 mg per mL solvent/vehicle) was stirred in HPLC vials (9 × 12 × 32 mm, Waters) at 350 rpm for 15 h. The presence of solid particles was determined by microscopic analysis of 10 μL samples. If the active pharmacological ingredient (API) was completely dissolved, more solid API was added before stirring for another 15 h. This step was repeated for up to 96 h or until residual solid particles could be detected. Samples (0.5 mL) were transferred to Eppendorf Ultrafree filter tubes (Filter: PVDF 0.22 μm) and centrifuged at 14,500 rpm for 10 min. The filtrates were diluted in ethanol and analyzed by ultra-performance liquid chromatography (UPLC). Measurements were repeated in 0.05 M aqueous phosphate buffer and in fasted (FaSSIF) and fed (FeSSIF) simulated gastrointestinal fluids.

GPR55 = GPR55 (Homo sapiens, UniProt Q9Y2T6); test: Endocannabinoid target profiling: GPR55; details: Table S1; read-out: GPR55 (Ki, IC50)
Chain of GPR55 (Q9Y2T6 whole entry, species assumed): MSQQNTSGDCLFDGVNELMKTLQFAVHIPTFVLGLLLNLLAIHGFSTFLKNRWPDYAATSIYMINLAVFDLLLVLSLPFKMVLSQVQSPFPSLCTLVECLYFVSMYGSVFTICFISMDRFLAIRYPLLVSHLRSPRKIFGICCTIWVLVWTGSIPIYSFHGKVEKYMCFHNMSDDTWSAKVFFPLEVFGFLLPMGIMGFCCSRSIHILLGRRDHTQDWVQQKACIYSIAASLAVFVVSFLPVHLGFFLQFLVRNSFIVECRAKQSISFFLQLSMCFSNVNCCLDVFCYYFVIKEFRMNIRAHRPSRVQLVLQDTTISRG

Microsomal clearance = type: in vitro ADME; details: human, human microsomes; Table 1
human Q63R variant CB2R = target: T1, human Q63R variant CB2R (Homo sapiens, UniProt P34972, Q63R); test: cAMP assay in CHO cells; type: cell-based; details: mean ± SD
T1 construct: expressed in transfected cells; host or cells: CHO cells
T1 sequence (P34972 whole entry Q63R): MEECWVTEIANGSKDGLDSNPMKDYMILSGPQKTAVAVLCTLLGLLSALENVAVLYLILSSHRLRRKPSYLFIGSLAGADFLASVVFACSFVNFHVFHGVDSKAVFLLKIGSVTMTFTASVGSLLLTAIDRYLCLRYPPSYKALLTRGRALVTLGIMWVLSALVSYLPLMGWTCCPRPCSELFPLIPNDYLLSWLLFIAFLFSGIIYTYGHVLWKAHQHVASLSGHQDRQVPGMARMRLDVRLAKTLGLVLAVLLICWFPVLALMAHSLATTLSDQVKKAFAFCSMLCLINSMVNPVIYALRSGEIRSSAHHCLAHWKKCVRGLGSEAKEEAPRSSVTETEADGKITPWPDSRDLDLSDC

ABHD12 = ABHD12 (Homo sapiens, UniProt Q8N2K0); test: Endocannabinoid target profiling: ABHD12; type: biochemical
Chain of ABHD12 (Q8N2K0 whole entry, species assumed): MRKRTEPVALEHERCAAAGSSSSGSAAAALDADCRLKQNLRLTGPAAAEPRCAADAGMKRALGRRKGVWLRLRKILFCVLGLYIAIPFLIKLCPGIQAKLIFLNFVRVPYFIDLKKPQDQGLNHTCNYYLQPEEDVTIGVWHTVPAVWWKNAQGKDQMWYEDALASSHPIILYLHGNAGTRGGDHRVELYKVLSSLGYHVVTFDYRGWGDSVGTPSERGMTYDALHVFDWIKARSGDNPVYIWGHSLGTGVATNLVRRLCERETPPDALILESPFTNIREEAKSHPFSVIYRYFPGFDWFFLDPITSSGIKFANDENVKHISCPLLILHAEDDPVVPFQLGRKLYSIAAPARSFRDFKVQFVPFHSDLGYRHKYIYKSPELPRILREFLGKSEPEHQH

COX-2 = COX-2 (Homo sapiens, UniProt P35354); test: Endocannabinoid target profiling: COX-2; type: biochemical
Chain of COX-2 (P35354 18-604): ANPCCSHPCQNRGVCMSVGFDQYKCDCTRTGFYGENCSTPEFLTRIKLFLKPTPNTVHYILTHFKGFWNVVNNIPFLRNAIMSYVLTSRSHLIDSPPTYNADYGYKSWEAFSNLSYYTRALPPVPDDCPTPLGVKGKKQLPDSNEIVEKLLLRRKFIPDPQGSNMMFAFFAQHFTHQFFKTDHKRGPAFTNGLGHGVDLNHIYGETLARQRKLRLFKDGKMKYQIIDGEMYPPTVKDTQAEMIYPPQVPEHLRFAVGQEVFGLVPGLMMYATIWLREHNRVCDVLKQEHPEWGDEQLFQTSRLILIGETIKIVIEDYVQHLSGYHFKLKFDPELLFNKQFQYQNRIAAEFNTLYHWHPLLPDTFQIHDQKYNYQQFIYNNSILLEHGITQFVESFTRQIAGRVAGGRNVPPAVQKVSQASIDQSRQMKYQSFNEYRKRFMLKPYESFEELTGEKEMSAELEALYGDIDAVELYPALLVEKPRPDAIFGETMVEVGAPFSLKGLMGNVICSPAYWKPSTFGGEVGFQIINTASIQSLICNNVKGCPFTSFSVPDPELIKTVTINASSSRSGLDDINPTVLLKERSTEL

Question: Which “GSH adducts (rat liver microsomes)” value (GSH adduct formation) does the source give for `Cn1c(C(C)(C)C)cc(=NC(=O)c2cc(C(F)(F)F)ccc2OCC(C)(C)O)n1CC1CCC1` [RNB-61] here?
Answer: The value was “did not form any adducts”.

Question: What about the IC50 (MAGL; Table S1, read-out: MAGL (Ki, IC50)) of the same compound?
Answer: The IC50 was over 10 µM.

Question: And the “inhibition of EC hydrolysis by MAGL” value (MAGL; screening concentration 10 μM)?
Answer: The value was “did not inhibit”.

Question: And the EC50 (canine CB2R)?
Answer: Its EC50 is 0.00186 ± 0.00158 µM.

Question: What about the logD ([1]; Table 3, read-out: clogP (cell says logD)) of the same compound?
Answer: Its logD is 3.34.

Question: What about the logD ([1]; octanol/water, read-out: logD) of the same compound?
Answer: Its logD is 3.3.

Question: What about the IC50 (GPR55) of the same compound?
Answer: Its IC50 is over 50 µM.

Question: What about the microsomal CLint (Microsomal clearance) of the same compound?
Answer: The microsomal CLint was at most 10 µL/min/mg.

Question: And the EC50 (human Q63R variant CB2R)?
Answer: The EC50 was 0.00029 ± 7e-05 µM.

Question: What about the IC50 (ABHD12; Table S1, read-out: ABHD12 (Ki, IC50)) of the same compound?
Answer: The IC50 was over 10 µM.

Question: And the “inhibition of EC hydrolysis by ABHD12” value (ABHD12; screening concentration 10 μM)?
Answer: Its value is “did not inhibit”.

Question: What about the IC50 (COX-2; Table S1, read-out: COX-2 (Ki, IC50)) of the same compound?
Answer: Its IC50 is over 10 µM.

Question: What about the “inhibition of EC oxygenation (COX-2)” value (COX-2; screening concentration 10 μM) of the same compound?
Answer: The value was “did not inhibit”.
